Legend:
[1] = intravenous (Hirano et al. 1993); cited from earlier work
[2] = system: rat mammary cancer 13762F tumor cells; assay: In vivo tumor growth after intratumoral injection of radiopharmaceuticals (rat mammary cancer model); parameters: species or system Fischer 344 female rats
Method: The radionuclides YCl3, ^111In—Cl, and ^201Tl—Cl were obtained from a local supplier of radioisotopes, Iso-Tex Diagnostics (Friendswood, Tex.). YCl3 obtained from the supplier was in an acidic preparation with a pH of 2-3, and was subsequently diluted in saline to a final pH of about 4-6 before injection. Initial activities of ^111In—Cl and YCl3 were about 200-500 mCi/ml, and dilution were made with preservative-free saline. YIMA was prepared by co-precipitation, as set forth in U.S. Ser. No. 10/724,027. Briefly, 500 μl of FeCl3 (1 mg Fe/ml) was added to 30 μl of ^90Y chloride (20-40 μCi/30 μl), and either 30 μl of NaOH (1.0 N) or 10 μl of NH4OH (20.0%) was added to the solution to reach a pH of about 7.0 to 9.0. Co-precipitated YIMA radiopharmaceutical macroaggregates were then separated from remaining soluble radionuclides by centrifuging the reactions from 1500 RPM to 3000 RPM×5 minutes, and filtered using a Millipore Nylone (size: 0.45 μm, diameter: 13 mm) to isolate the radiopharmaceutical macroaggregates.
The rat model of in vivo tumor growth was generated as follows. On day zero, 100,000 rat mammary cancer 13762F tumor cells were implanted in a volume of 0.15 ml into the right thigh muscle of Fischer 344 female rats weighing approximately 160 grams. […] YIMA was injected in a volume of 0.2 ml on days 3-7 after tumor implantation. Tumor sizes and body weights of the rats were monitored regularly (5 times a week) for several weeks, or until the tumors grew beyond 2.5 cm, at which time the rats were euthanized.

CSF proteins = assay: Binding to CSF proteins (Centrifree filter separation); assay type: in vitro ADME, human (patients); conditions: 0.2, 0.5 or 1 μCi added to diluted CSF, 20 minutes; physiologic range, all concentrations tested
Method: To test the hypothesis that local sequestration of ^111In—Cl is due to protein binding, both ^111In—Cl and YCl3 were tested for binding to CSF and serum proteins. Serum proteins were obtained from residual baseline serum and CSF proteins were obtained from patients participating in other research protocols who had consented to blood sampling. To determine the level of ^111In—Cl protein binding, 0.2, 0.5, or 1 μCi of ^111In—Cl was added to diluted CSF (0.125 or 0.5) or diluted serum protein (0.125 and 0.25) and incubated for 20 minutes. To determine the level of YCl3 protein binding, 0.2, 0.5, or 1 μCi of YCl3 was added to diluted CSF (0.063 or 0.5) or diluted serum protein (0.063 and 0.375), and incubated for 20 minutes. After incubation, free radiopharmaceuticals were separated from protein bound ^111In—Cl or YCl3 using Amicon Centrifree Micropartition filters in a single centrifugation step at 3000 g for 15 minutes according to manufacturer's instructions (Amicon, Beverly, Mass.). The percent binding of YCl3 or ^111In—Cl to the CSF or serum protein was then calculated. As shown in FIG. 6 and FIG. 7 respectively, both YCl3 and ^111In—Cl bind avidly to CSF and serum protein within the physiologic range (a dilution factor between 0.2 and 0.6) at all concentrations tested. At room temperature, both YCl3 and ^111In—Cl have greater than 95% binding to serum proteins.

[3] = In vivo local sequestration at the injection site by serial scintigrams (intramuscular or intratumoral injection); parameters: species or system Fischer rats
Method: To further study the localization of unsealed radiopharmaceuticals after injection, in vivo imaging studies were carried out comparing ^111In DTPA (In-DTPA) (negative control) and Indium-111-Iron Macroaggregate (^111In-IMA) (positive control) to ^111In—Cl. ^111In emits gamma rays that can be detected using a gamma camera. ^111In-IMA was generated according to methods disclosed in U.S. Ser. No. 10/724,027, incorporated herein by reference. Each radiopharmaceutical was administered by intramuscular injection into the thigh muscle of Fischer rats which weighed approximately 200 grams. Two different doses of ^111In—Cl were administered to the rats, 0.4 and 0.8 mCi in 0.2 ml saline. Distribution of the ^111In—Cl was determined through serial scintigrams. […] In comparison, when ^111In-IMA was administered to rats, consistent retention (84%) of the ^111In-IMA was found 70 hours after administration (FIG. 8). Persistent intramuscular localization of ^111In—Cl was also found in rats for both dose levels of ^111In—Cl, with over 50% of the injected ^111In—Cl remaining in the injection site after three days.
To investigate whether the addition of free iron to radionuclides would increase the locoregional retention of various radionuclides, admixtures of ^67Ga-citrate, YCl3, or ^111In—Cl, were prepared with FeCl3.6H2O at 1-5 mg Fe/ml. Each radionuclide combination/admixture was administered either by intramuscular (IM) injection into the thigh muscle of the left leg (0.1-1.0 mCi) or by intratumoral (IT) injection into a tumor in the right leg (0.4-5.0 mCi) of Fischer rats. Distribution of the radionuclide was determined through serial scintigrams. Whole body images were acquired with a Siemens M-CAM camera using respective photo peaks of Ga-67, Tl-201 (for Y-90), or In-111, and 15-20% windows in photo energy. The typical imaging time was 0.5 to 5 minutes. A respective standard was present in the field of view (0.1-0.5 mCi), and used for image quantification by comparing images with the standard and normalizing the initial injection time as 100%. The Fe content in each combination/admixture was 1 mg in the total injectate.

[4] = locoregional administration in rats

## [Cl][90Y]([Cl])[Cl] [YCl3, Yttrium-90 chloride]
[1]
  formation of colloidal material in blood plasma: dose-dependent formation of colloidal material
  primary target organs: liver and spleen
[2]; 1 mCi intratumoral on day 10 in 0.1-0.2 ml saline, FIG. 2
  tumor development: significantly suppressed
[2]; 100 μCi intratumoral on day 10 in 0.1-0.2 ml saline, FIG. 2
  tumor growth: not significantly suppressed
[2]; 200 μCi intratumoral on day 10 in 0.1-0.2 ml saline, FIG. 2
  tumor development: significantly suppressed
[2]; 500 μCi intratumoral on day 10 in 0.1-0.2 ml saline, FIG. 2
  tumor development: significantly suppressed
[2]; FIG. 3, in 0.2-0.3 ml saline, YCl3 0.3, 0.6, 1.5 mCi, ^111In—Cl 0.6, 1.2, 2.4, 4.8 mCi, ^67Ga 0.6 mCi
  tumor growth: significantly suppressed tumor growth
[2]; FIG. 4, in 0.5 ml saline, YCl3 0.5, 1.0, 2.0 mCi, ^111In—Cl 1.0, 4.0 mCi, FDG 1.0, 2.0, 3.0 mCi, ^67Ga—Fe 1.77 mCi
  tumor growth: significantly suppressed tumor growth
[2]; at least 200 μCi intratumoral, FIG. 2
  tumor growth: clearly suppressed
[2]; [4]
  dose equivalent for humans at which mortality occurred: 350 mCi/70 Kg
  lowest dose with consistently observed local tumor suppression effects: 0.2 mCi
[2]; rats, sporadically, at high dose equivalents for humans (e.g., 350 mCi/70 Kg)
  mortality after locoregional administration: some mortality was observed
CSF proteins
  binding to CSF: bind avidly
[3]; admixture with FeCl3.6H2O, intramuscular or intratumoral injection
  retention time with free iron: Increase in the retention time
[3]; intramuscular injection in rats, without free iron, FIG. 15
  time over which cleared from the injection site: approximately 20 hours
[3]; intramuscular injection, without free iron
  retention in the injection site: not locally sequestered

From US8329141B2, “Locoregional internal radionuclide ablation of abnormal tissues” (Board of Regents, The University of Texas System, priority 2004, dated 2012)
